Like-named read-outs stand apart in the source and are kept apart here. No end group written: not given here.
Columns and labels:
[1] = biological target: T1, PR-3 (Homo sapiens, UniProt P24158); conditions: cited from earlier work
T1 sequence (P24158 28-248): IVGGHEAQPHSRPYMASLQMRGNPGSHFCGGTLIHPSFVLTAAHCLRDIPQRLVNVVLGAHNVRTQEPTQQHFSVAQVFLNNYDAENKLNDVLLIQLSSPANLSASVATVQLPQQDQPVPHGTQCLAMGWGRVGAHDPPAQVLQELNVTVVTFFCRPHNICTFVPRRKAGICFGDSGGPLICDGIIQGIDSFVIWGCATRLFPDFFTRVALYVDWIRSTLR

[2] = biological target: T2, purified native PR-3 from human neutrophils (Homo sapiens, UniProt P24158); test: 35S-labelled 26 kD TNFα autoradiographic convertase assay with purified native PR-3; type: biochemical; conditions: PR-3 0.3 μg/ml preincubated 30 minutes
T2 construct: from tissue; host or cells: human blood neutrophils
T2 sequence (P24158 28-248): T1 sequence (P24158 28-248)
Description: (§1) ^35S-cysteine-labelled 26 kD TNFα was used to assay for convertase inhibitors as follows. 25 μl of in vitro translated material was combined with 250 μl of solution containing convertase activity partially purified from uninduced HL60 cells, plus compounds to be assayed for inhibitory activity. The convertase was produced by harvesting 2×10^9 HL60 cells, disrupting the cells, and isolating S-1 (supernatant fluid from a 100,000 ×g centrifugation) and P-30 (pellet from a 30,000×g centrifugation) fractions totalling 18 and 6 ml, respectively. 250 μl of the P-30 fraction was used, although the S-1 fraction may also be used. The assay was carried out at 30° C. for 1 hour, essentially as described above. Next, the reaction mixture was immunoprecipitated with rabbit anti-human TNFα polyclonal antisera (produced from TNFα made in E. coli) and protein A Sepharose, pelleted and washed. The bound protein was eluted and electrophoresed using SDS-PAGE. The gel was fixed in 40% methanol, 10% acetic acid, soaked in Enlightening (Dupont), dried, and exposed to X-ray film which was subsequently developed.
The above assay was also used with purified native PR-3 from human neutrophils to test a variety of proteinase inhibitors for their ability to inhibit TNFα convertase activity, as shown in FIG. 5. Purified PR-3 (0.3 μg/ml) was preincubated for 30 minutes with the following inhibitors prior to addition of ^35S-labelled 26 kD-TNFα, and then assayed as described above: DCI (45 μM), α-2-macroglobulin (1 mg/ml), PMSF (20 μM), leupeptin (2 μg/ml), EDTA (10 mM), or pepstatin (2 μg/ml).

[3] = biological target: T3, TNFα convertase/PR-3 (purified native PR-3) (Homo sapiens, UniProt P24158); test: Colorimetric Boc-Ala-ONp assay for convertase inhibition; type: biochemical
T3 construct: from tissue; host or cells: human blood neutrophils
T3 sequence (P24158 28-248): T1 sequence (P24158 28-248)
Description: TNFα convertase inhibition can also be measured by a colorimetric assay. In this type of assay, the actual activity of TNFα convertase is measured directly using a colorimetric TNFα convertase substrate. […] One such substrate is Boc-Ala-ONp (Bachem Bioscience, Inc., Philadelphia, Pa.). Other potentially useful substrates can be predicted from the structure of TNFα convertase and other serine proteases. Although the example herein uses purified native PR-3 as the TNFα convertase, it is contemplated that recombinant PR-3 or other TNFα convertases can be used in this assay as well.
Peptide diphenyl phosphonate inhibitors were synthesized and stored as lyophilized solids as described in Oleksyszyn and Powers, Biochem 30:485-493 (1991). Inhibitor solutions (10 mg/ml) were prepared in 100% dimethyl sulfoxide (DMSO) and diluted into aqueous buffers upon initiation of the experiments. 3,4, dichloro-isocoumarin was purchased from CalBiochem. Purified PR-3 (10 μl, 0.1 mg/ml) was mixed with varying concentrations of protease inhibitor ([…]) in 20 mM sodium phosphate buffer, pH 7.0, containing 0.1 M sodium chloride. Aliquots (40 μl) were removed at selected times and diluted 1/10 into a colorimetric assay for convertase, containing 0.5-1 mM Boc-Ala-ONp (prepared fresh from a 50 mM stock in 100% methanol) in 0.02 M sodium phosphate buffer, pH 7.0, 0.1 M sodium chloride. The increase in absorbance was monitored at 347 nm on a Hewlett Packard 8450A spectrophotometer, and using an extinction coefficient of 5.5×10^3 M^−1cm^−1 to calculate units of enzyme activity.
The peptide diphenyl phosphonates were tested in the colorimetric assay described in Example 3, for inhibition of TNFα convertase/PR-3 activity.

[4] = biological target: T4, recombinant PR-3 (rPR-3) (Homo sapiens, UniProt P24158); test: Residual recombinant PR-3 activity with Boc-Ala-ONp substrate; type: biochemical
T4 construct: made in house; host or cells: Sf9 insect cells (baculovirus, pAcC13preproPR-3)
T4 sequence (P24158 28-248 limits assumed): T1 sequence (P24158 28-248)
Description: Cytoplasmic anti-neutrophil cytoplasmic antibodies (c-ANCA) are human polyclonal antibodies derived from patients with Wegener's granulomatosis. […] Protein-A-purified human c-ANCA (supplied by Dr. Erik Hack, The Netherlands) was mixed with purified recombinant PR-3 (SEQ ID NO: 23) prepared as described above at various molar ratios of antibody to enzyme, and after incubation for 1 hour at 37° C., residual enzyme activity was measured using the Boc-Ala-ONp substrate as described in Example 4.
The two peptide diphosphonate inhibitors, Boc-Ala-Pro-Val-(OPh)2 and Boc-Val-Pro-Val-(OPh)2, were mixed at various concentrations with 125 ng of rPR-3 (prepared as described above) and incubated for 1 hour at 25° C. The residual enzyme activity was measured using the Boc-Ala-ONp substrate and compared to the same amount of enzyme incubated in the absence of inhibitor. Under these conditions, the Boc-Ala-Pro-Val-(OPh)2 inhibited PR-3 with an IC50 of about 10 μM and the Boc-Val-Pro-Val-(OPh)2 inhibited PR-3 with an IC50 of about 0.4 μM. […] Thus, recombinant PR-3 may be employed in detection of useful inhibitors of native PR-3.

[5] = biological target: T1, PR-3; test: Inhibition of PR-3, summary statement of the assays shown below; type: biochemical
Description: As shown below, PR-3 is inhibited by peptide diphenyl phosphonate inhibitors, elastinal, and dichloro-isocoumarin (DCI). The peptide diphenyl phosphonate inhibitors include Boc-Val-Pro-Val-p(OPh)2 and Boc-Ala-Pro-Val-p(OPh)2 (BOC-butoxycarbonyl). […] “Boc” means N-tert-butoxycarbonyl and “p(OPh)2” represents the diphenyl phosphonate moiety, wherein the formula—COOH group is replaced with P(=0)-(O-phenyl)2. See Oleksyszyn et al., Biochem 30:485 (1991). It will be appreciated that other peptide diphenyl phosphonate molecules may inhibit PR-3. Potential inhibitors may be constructed using the procedures shown in Oleksyszyn et al., supra, using small aliphatic peptides, for an example. Once the potential inhibitors are made, they may be tested in the assays shown below.

[6] = biological target: T5, TNFα convertase from HL60 cells (Homo sapiens, UniProt P24158); test: 35S-labelled 26 kD TNFα in vitro transcription/translation autoradiographic convertase assay with HL60 convertase (P-30 fraction); type: biochemical; conditions: 5 mg/ml; 30° C., 1 hour; SDS-PAGE autoradiography
T5 construct: solution containing convertase activity partially purified from uninduced HL60 cells; endogenous in cells
T5 sequence (P24158 28-248): T1 sequence (P24158 28-248)
Description: A preferred assay procedure consists of in vitro transcription/translation to produce the 26 kD molecule, followed by treatment with convertase in the presence or absence of compounds being tested for convertase inhibitory activity. The procedure entails in vitro transcription/translation of the TNFα cDNA present in the pGEM vector. Thus, the sequence was removed from pB11 by Pst I digestion and was inserted into the Pst I site of pGEM-3 (obtainable from Promega Biotec, Madison Wis.). The resulting plasmid, termed pGEM-TNFα14, was amplified in E. coli using established techniques, and plasmid DNA was prepared according to the procedure of Birnboim and Doly, described above. Plasmid DNA was transcribed in vitro by linearizing it with Hind III, and the linearized plasmid templates were used to prepare capped transcripts with T7 RNA polymerase and an in vitro transcription kit supplied by Promega Biotec (Madison, Wis.).
The mRNA produced above was translated in vitro in the presence of ^35S-cysteine to produce ^35S-cysteine-labelled 26 kD TNFα. A rabbit reticulocyte lysate translation kit was used, also supplied by Promega Biotec, and the conditions recommended by the manufacturer were followed.
as §1, with “The bound protein was eluted and electrophoresed using SDS-PAGE. The gel was fixed in 40% methanol, 10% acetic acid, soaked in Enlightening (Dupont), dried, and exposed to X-ray film which was subsequently developed.” left out

Question: With O=S(=O)(F)Cc1ccccc1 [PMSF, phenylmethyl-sulfonyl fluoride] as the molecule, how does the “inhibition of PR-3” value [1] read?
Answer: Its value is “inhibited”.

Question: What about the “inhibition of TNFα convertase activity of purified PR-3” value ([2]; 20 μM) of the same molecule?
Answer: Its value is “significant inhibitory activity”.

Question: With CC(C)C(NC(=O)[C@@H]1CCCN1C(=O)[C@@H](NC(=O)OC(C)(C)C)C(C)C)P(=O)(Oc1ccccc1)Oc1ccccc1 (stereo partly drawn) [VPV, Boc-Val-Pro-Val-p(OPh)2] as the molecule, how does the “inhibition of TNFα convertase/PR-3 activity” value ([3]; 35 μM) read?
Answer: Its value is “demonstrated inhibitory activity”.

Question: What about the IC50 [4] of the same molecule?
Answer: The IC50 was roughly 400 nM.

Question: And the “inhibition of PR-3” value [5]?
Answer: The value was “inhibited”.

Question: Which “inhibition of the convertase (conversion of 26 kD TNFα)” value [6] does the source give for CC(C)C[C@H](NC(=O)N[C@H](C(=O)N[C@@H](CCC(N)=O)C(=O)N[C@@H](C)C=O)[C@@H]1CCNC(=N)N1)C(=O)O [elastinal] here?
Answer: The value was “inhibit the convertase”.

Question: What about the “inhibition of PR-3” value [5] of the same molecule?
Answer: The value was “inhibited”.

Question: Which “inhibition of convertase activity” value ([3]; 50 μM, Boc-Ala-ONp colorimetric assay with PR-3) does the source give for AQAVRSSS here?
Answer: Its value is “did not inhibit convertase activity significantly”.

Question: Which “inhibition of PR-3” value [1] does the source give for “α1-antitrypsin: protein reported to inhibit PR-3” here?
Answer: The value was “inhibited”.

Question: For “α-2-macroglobulin: proteinase inhibitor tested against purified PR-3”, which “inhibition of PR-3” value [1] is on record?
Answer: The value was “inhibited”.

Question: And the “inhibition of TNFα convertase activity of purified PR-3” value ([2]; 1 mg/ml)?
Answer: The value was “significant inhibitory activity”.

Reference: patent US6599706B1, “Recombinant PR-3 and assays employing the same” (Chiron Corporation, priority 1994, dated 2003)
